Measurements published in patent publication US20160030407A1, “Method of Treating Inflammatory Lung Disease” (priority 2010, published 2016).

Legend:
[1] = biological target: T1, nAChR α3/β4 (Homo sapiens, UniProt P30926+P32297); assay: cell-based; details: read-out: Normalized % Inhibition
Description: (§1) Briefly, cells were incubated with […] dye for 30 min at 37° C.

[2] = tested on: autoimmune thyroiditis; assay: Autoimmune thyroiditis model (Example 16B): thyroid histopathology; format: in vivo, CBA/J mice; details: 0.05 mg/ml in drinking water; day 21; p=0.023
Description: In another experiment, eighteen CBA/J female mice were immunized with mouse thyroglobulin, emulsified in complete Freund's adjuvant, on day 0 and day 7. One group of mice (n=10) drank regular water. […] Mice were sacrificed 21 days after the first immunization to collect the thyroid gland and the blood. The thyroid was analyzed for the presence of infiltrating mononuclear cells. The blood was analyzed for the levels of antibodies against thyroglobulin.

[3] = tested on: IL-1β; assay: LPS-induced IL-1β release in whole human blood; format: cell-based
Description: Whole human blood was treated with LPS to stimulate inflammatory responses. […] The inflammatory molecule IL-1β was measured after 16 hours.

[4] = biological target: T1, nAChR α3/β4; assay: nAChR α3/β4 channel agonist assay (FLIPR); format: cell-based; details: 0.3-1000 μM
Description: as §1

[5] = biological target: T2, nAChR α4/β2 (Homo sapiens, UniProt P17787+P43681); assay: nAChR α4/β2 channel agonist assay (FLIPR); format: cell-based; details: 0.3-1000 μM
T2 construct: host or cells: HEK293 cells, transient
Description: as §1

[6] = Brain extract concentrations after single i.v. bolus; format: in vivo, Sprague-Dawley rats; details: for Concentration in rat brain extract: individual rats
Description: Six rats (3 males and 3 females) were dosed per dose group. […] Plasma and brain homogenates were stored at −80° C. until analysis.
An additional 48 rats (24 males and 24 females) received a single intravenous dose via the tail vein at the same doses as mentioned above. At 30 and 360 minutes post administration, 6 rats (3 males and 3 females) per dose group, per time point were euthanized, bled via cardiac puncture, and perfused, and brains were collected. The brains were homogenized. Blood was spun, and plasma was collected. Plasma and brain homogenate were stored at −80° C.
The animals were weighed prior to dosing and received a single i.v. dose of either test compound at a volume of 5 mL/kg. Blood was collected via the venus plexus (retro-orbital) into tubes containing (K2) EDTA. No more than 0.5 mL was collected per time point. […] The brain was removed, weighed, homogenized in sterile 0.9% saline at a volume equal to its weight, and stored at −80° C.
The amount of the test agent in the supernatant was determined by liquid chromatography tandem mass spectrometry (LC/MS/MS).
Analysis. Samples were analyzed by LC/MS/MS using an Agilent 6410 mass spectrometer coupled with an Agilent 1200 high pressure liquid chromatography (HPLC) and a CTC PAL chilled autosampler, all controlled by MassHunter software (Agilent). After separation on a hydrophilic interaction liquid chromatography (HILIC) HPLC column (Sepax) using an acetonitrile-ammonium acetate/acetic acid gradient system, peaks were analyzed by mass spectrometry (MS) using ESI ionization in multiple reaction monitoring (MRM) mode. MassHunter software was used to calculate the concentration of the test compounds in samples from the peak area using the appropriate calibration curves.

[7] = tested on: BACE-1 mRNA; assay: BACE-1 mRNA levels in SHSY cells (RTPCR); format: cell-based, human; details: 30 minutes, TNF-α used to increase BACE expression
Source text: TNF-α was used to increase BACE expression.

T1 sequence (P32297 32-505): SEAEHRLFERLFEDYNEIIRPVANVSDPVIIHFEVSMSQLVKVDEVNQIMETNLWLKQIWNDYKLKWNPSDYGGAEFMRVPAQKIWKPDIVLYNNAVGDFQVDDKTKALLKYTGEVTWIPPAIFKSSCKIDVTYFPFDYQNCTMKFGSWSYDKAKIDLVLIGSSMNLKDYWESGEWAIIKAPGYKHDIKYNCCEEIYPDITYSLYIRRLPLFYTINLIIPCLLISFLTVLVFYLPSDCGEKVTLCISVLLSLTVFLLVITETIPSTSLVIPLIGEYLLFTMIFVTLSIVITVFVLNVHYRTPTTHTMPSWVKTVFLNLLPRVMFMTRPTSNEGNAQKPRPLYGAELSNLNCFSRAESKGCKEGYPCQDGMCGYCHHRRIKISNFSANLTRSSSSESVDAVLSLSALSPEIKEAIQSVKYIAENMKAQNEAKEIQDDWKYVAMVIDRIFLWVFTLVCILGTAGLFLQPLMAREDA
T1 sequence (P30926 22-498): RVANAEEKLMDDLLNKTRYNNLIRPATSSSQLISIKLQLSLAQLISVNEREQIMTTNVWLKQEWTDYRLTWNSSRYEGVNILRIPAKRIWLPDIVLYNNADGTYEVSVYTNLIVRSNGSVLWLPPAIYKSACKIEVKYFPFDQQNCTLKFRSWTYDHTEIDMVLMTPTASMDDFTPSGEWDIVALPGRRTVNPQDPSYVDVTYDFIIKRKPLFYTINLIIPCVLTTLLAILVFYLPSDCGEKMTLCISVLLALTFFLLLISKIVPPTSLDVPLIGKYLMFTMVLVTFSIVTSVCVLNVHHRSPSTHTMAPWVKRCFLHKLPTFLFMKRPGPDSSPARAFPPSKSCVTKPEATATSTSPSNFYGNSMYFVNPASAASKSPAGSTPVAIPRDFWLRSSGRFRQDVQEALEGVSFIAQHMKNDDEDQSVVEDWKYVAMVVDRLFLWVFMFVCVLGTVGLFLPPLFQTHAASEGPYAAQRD
T2 sequence (P43681 29-627): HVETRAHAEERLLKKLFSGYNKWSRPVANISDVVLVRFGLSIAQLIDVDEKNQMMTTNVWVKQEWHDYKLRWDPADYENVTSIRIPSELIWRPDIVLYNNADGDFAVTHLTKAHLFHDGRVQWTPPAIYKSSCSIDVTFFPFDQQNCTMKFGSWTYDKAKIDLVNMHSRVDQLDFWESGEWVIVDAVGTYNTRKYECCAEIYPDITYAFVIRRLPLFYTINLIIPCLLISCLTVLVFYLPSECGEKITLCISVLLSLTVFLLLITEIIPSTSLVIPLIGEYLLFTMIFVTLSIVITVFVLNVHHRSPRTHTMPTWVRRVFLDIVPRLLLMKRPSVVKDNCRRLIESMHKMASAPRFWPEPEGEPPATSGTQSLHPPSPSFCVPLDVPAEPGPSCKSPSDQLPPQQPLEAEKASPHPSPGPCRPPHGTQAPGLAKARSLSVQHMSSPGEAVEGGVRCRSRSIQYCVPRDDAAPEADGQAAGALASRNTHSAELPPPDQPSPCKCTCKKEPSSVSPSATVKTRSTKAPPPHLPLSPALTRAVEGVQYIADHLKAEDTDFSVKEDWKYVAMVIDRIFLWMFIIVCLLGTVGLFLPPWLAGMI
T2 sequence (P17787 26-502): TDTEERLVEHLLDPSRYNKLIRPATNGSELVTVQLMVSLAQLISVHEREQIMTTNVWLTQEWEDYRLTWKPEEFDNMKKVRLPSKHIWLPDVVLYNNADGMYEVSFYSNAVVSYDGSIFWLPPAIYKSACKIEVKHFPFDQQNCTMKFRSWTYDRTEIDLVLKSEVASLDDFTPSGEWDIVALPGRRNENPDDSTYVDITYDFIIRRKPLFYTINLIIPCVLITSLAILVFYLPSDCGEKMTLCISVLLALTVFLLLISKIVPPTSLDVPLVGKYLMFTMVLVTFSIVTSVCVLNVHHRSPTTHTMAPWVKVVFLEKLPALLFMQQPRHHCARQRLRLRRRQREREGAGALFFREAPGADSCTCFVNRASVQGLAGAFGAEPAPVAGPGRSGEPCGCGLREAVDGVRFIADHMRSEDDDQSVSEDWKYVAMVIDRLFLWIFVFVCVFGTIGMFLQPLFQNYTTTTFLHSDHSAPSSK

CN1CCCC1c1cccnc1.O=C(O)C(O)C(O)C(=O)O (single isomer, unassigned; (-)) [Nicotine, (−) Nicotine hydrogen tartrate, reference compound]
inhibition at 0.3 µM [1]: 19.1%
inhibition at 1 µM [1]: 19%
inhibition at 10 µM [1]: 95.8%
inhibition at 30 µM [1]: 139%
inhibition at 100 µM [1]: 145%
inhibition at 300 µM [1]: 144%
inhibition at 1000 µM [1]: 142%

C1=CCC(c2cccnc2)NC1 (racemic) [Anatabine, 1,2,3,6-tetrahydro-[2,3′]bipyridinyl]
frequency and severity of thyroiditis [2]: developed thyroiditis less frequently and of lower severity
IL-1β production over time ([3]; whole human blood + LPS (Example 15)): rapid and continuous effect on the suppression
accumulation of IL-1β ([3]; whole human blood + LPS, 16 hours (Example 13)): reduced accumulation of IL-1β
IL-1β, area under the dose-response curve ([3]; whole human blood + LPS, 16 hours (Example 14)): reduced accumulation of IL-1β
agonist activity [4]: showed agonist activity
agonist activity [5]: full agonist activity
Concentration in rat brain extract ([6]; Anatabine 0.1 mg/kg dose group, time point 0.5 hr): <LLQ
Concentration in rat brain extract ([6]; Anatabine 0.1 mg/kg dose group, time point 6 hr): <LLQ
Concentration in rat brain extract ([6]; Anatabine 0.1 mg/kg dose group, time point 24 hr): <LLQ
Concentration in rat brain extract ([6]; Anatabine 0.75 mg/kg dose group, time point 24 hr): <LLQ
Concentration in rat brain extract ([6]; Anatabine 1.0 mg/kg dose group, time point 6 hr): <LLQ
Concentration in rat brain extract ([6]; Anatabine 1.0 mg/kg dose group, time point 24 hr): <LLQ
Avg. Conc. (Combined Male and Female) ([6]; Rat Brain, Anatabine 0.75 mg/kg, combined, 24 hr): <LLQ
Avg. Conc. (Male or Female) ([6]; Rat Brain, Anatabine 0.75 mg/kg, female, 24 hr): <LLQ
Avg. Conc. (Male or Female) ([6]; Rat Brain, Anatabine 0.75 mg/kg, male, 24 hr): <LLQ
Avg. Conc. (Male or Female) ([6]; Rat Brain, Anatabine 1.0 mg/kg, female, 24 hr): <LLQ
appearance in brain tissue ([6]; rat, following i.v. administration): rapidly appear in brain tissue
Mean concentration in rat brain extracts ([6]; single i.v. 0.75 mg/kg, female, 24 hr): <LLQ
Mean concentration in rat brain extracts ([6]; single i.v. 0.75 mg/kg, male, 24 hr): <LLQ
Mean concentration in rat brain extracts ([6]; single i.v. 1.0 mg/kg, female, 24 hr): <LLQ
BACE-1 mRNA expression [7]: reduced this signal in a concentration-dependent manner
